These sequences were tested on serum 37 (individual 37).
Type: binding, human

Row | Sequence | Binding of serum 37 to linear peptides of Orf14 of SARS-CoV TOR2
1 | AAVGEILLLEWLAEV | 0.8
2 | AEAAVKPLLAPHHVV | 0.8
3 | APHHVVAVIQEIQLL | 0.5
4 | AVGEILLLEWLAEVV | 0.7
5 | AVIQEIQLLAAVGEI | 1.7
6 | EAEAAVKPLLAPHHV | 0.5
7 | EILLLEWLAEVVKLP | 0.6

What follows are sequences tested on serum 1a (individual 1, early serum).
Type: binding, human

Row | Sequence | Binding of serum 1a to linear peptides of Orf14 of SARS-CoV TOR2
8 | AAVGEILLLEWLAEV | 0.6
9 | AEAAVKPLLAPHHVV | 0.7
10 | APHHVVAVIQEIQLL | 0.5
11 | AVGEILLLEWLAEVV | 0.6
12 | AVIQEIQLLAAVGEI | 2.1
13 | EAEAAVKPLLAPHHV | 0.5
14 | EILLLEWLAEVVKLP | 0.5

The sequences below were run on serum SARS-green.
Type: binding, human

Row | Sequence | Binding of serum SARS-green to linear peptides of Orf14 of SARS-CoV TOR2
15 | AAVGEILLLEWLAEV | 0.5
16 | AEAAVKPLLAPHHVV | 0.8
17 | APHHVVAVIQEIQLL | 0.1
18 | AVGEILLLEWLAEVV | 0.3
19 | AVIQEIQLLAAVGEI | 2.5
20 | EAEAAVKPLLAPHHV | 0.4
21 | EILLLEWLAEVVKLP | 0.4

These sequences were tested on serum London.
Type: binding, human

Row | Sequence | Binding of serum London to linear peptides of Orf14 of SARS-CoV TOR2
22 | AAVGEILLLEWLAEV | 0.6
23 | AEAAVKPLLAPHHVV | 0.8
24 | APHHVVAVIQEIQLL | 0.3
25 | AVGEILLLEWLAEVV | 0.6
26 | AVIQEIQLLAAVGEI | 1.7
27 | EAEAAVKPLLAPHHV | 0.6
28 | EILLLEWLAEVVKLP | 0.7

What follows are sequences tested on control serum LUMC (pooled serum of ten healthy hospital workers).
Type: binding, human

Row | Sequence | Control serum LUMC linear peptides | Control serum LUMC looped peptides
29 | AAVGEILLLEWLAEV | 0.6 | 0.7
30 | AEAAVKPLLAPHHVV | 1.0 | 0.6
31 | APHHVVAVIQEIQLL | 0.6 | 0.5
32 | AVGEILLLEWLAEVV | 0.8 | 0.8
33 | AVIQEIQLLAAVGEI | 1.4 | 0.5
34 | EAEAAVKPLLAPHHV | 0.4 | 0.6
35 | EILLLEWLAEVVKLP | 0.6 | 0.6

What follows are sequences tested on serum 6 (individual 6).
Type: binding, human

Row | Sequence | Binding of serum 6 to linear peptides of Orf14 of SARS-CoV TOR2
36 | AAVGEILLLEWLAEV | 0.5
37 | AEAAVKPLLAPHHVV | 0.6
38 | APHHVVAVIQEIQLL | 0.4
39 | AVGEILLLEWLAEVV | 0.5
40 | AVIQEIQLLAAVGEI | 2.0
41 | EAEAAVKPLLAPHHV | 0.4
42 | EILLLEWLAEVVKLP | 0.7

The sequences below were run on serum 62 (individual 62).
Type: binding, human

Row | Sequence | Binding of serum 62 to linear peptides of Orf14 of SARS-CoV TOR2
43 | AAVGEILLLEWLAEV | 0.6
44 | AEAAVKPLLAPHHVV | 0.8
45 | APHHVVAVIQEIQLL | 0.3
46 | AVGEILLLEWLAEVV | 0.6
47 | AVIQEIQLLAAVGEI | 2.1
48 | EAEAAVKPLLAPHHV | 0.4
49 | EILLLEWLAEVVKLP | 0.5

What follows are sequences tested on serum 1b (individual 1, late serum).
Type: binding, human

Row | Sequence | Binding of serum 1b to linear peptides of Orf14 of SARS-CoV TOR2
50 | AAVGEILLLEWLAEV | 0.5
51 | AEAAVKPLLAPHHVV | 0.5
52 | APHHVVAVIQEIQLL | 0.4
53 | AVGEILLLEWLAEVV | 0.5
54 | AVIQEIQLLAAVGEI | 2.4
55 | EAEAAVKPLLAPHHV | 0.3
56 | EILLLEWLAEVVKLP | 0.5

The sequences below were run on serum 2 (individual 2).
Type: binding, human

Row | Sequence | Binding of serum 2 to linear peptides of Orf14 of SARS-CoV TOR2
57 | AAVGEILLLEWLAEV | 0.6
58 | AEAAVKPLLAPHHVV | 1.3
59 | APHHVVAVIQEIQLL | 0.4
60 | AVGEILLLEWLAEVV | 0.5
61 | AVIQEIQLLAAVGEI | 1.7
62 | EAEAAVKPLLAPHHV | 0.7
63 | EILLLEWLAEVVKLP | 0.5

Each sequence was assayed on control serum Blood-bank (commercial negative donor pooled serum).
Type: binding, human

Row | Sequence | Control Serum Blood-Bank Looped peptides | Control serum Blood-bank linear peptides
64 | AAVGEILLLEWLAEV | 0.7 | 0.4
65 | AEAAVKPLLAPHHVV | 0.6 | 0.8
66 | APHHVVAVIQEIQLL | 0.6 | 0.3
67 | AVGEILLLEWLAEVV | 0.8 | 0.5
68 | AVIQEIQLLAAVGEI | 0.5 | 1.8
69 | EAEAAVKPLLAPHHV | 0.7 | 0.4
70 | EILLLEWLAEVVKLP | 0.7 | 0.7

The sequences below were run on serum SARS-yellow.
Type: binding, human

Row | Sequence | Binding of serum SARS-yellow to linear peptides of Orf14 of SARS-CoV TOR2
71 | AAVGEILLLEWLAEV | 0.6
72 | AEAAVKPLLAPHHVV | 0.8
73 | APHHVVAVIQEIQLL | 0.3
74 | AVGEILLLEWLAEVV | 0.5
75 | AVIQEIQLLAAVGEI | 2.3
76 | EAEAAVKPLLAPHHV | 0.2
77 | EILLLEWLAEVVKLP | 0.4

Source: patent US20060154243A1 (priority 2003, published 2006)
